Source: patent US20220153750A1, “SALTS OF 5,6-DIHYDRO-4H-THIENO[2,3-C]PYRROL-4-ONE COMPOUND AS ERK INHIBITORS” (Eli Lilly and Company, priority 2019, published 2022)
Values after ≈ are worked out from the molar mass of the structure shown.

Assays:
Format in all cases: physicochemical
[1] = Hygroscopicity (moisture sorption analysis at 25° C.); settings: for Hygroscopicity, weight increase: 25° C.
Experimental: The purpose of this assay is to determine the hygroscopicity of the solid forms of the present invention under conditions normally encountered in manufacturing and storage of drug products. Moisture analysis is performed at 25° C. using a TA instrument. The following experimental conditions are used: sample size ˜3-20 mg, dry sample at 0% RH until <0.0 weight change over 10 minutes, 5-95% RH adsorption/desorption range, and 5% RH step interval. The minimum equilibration criterion is <0.01% weight change for 5 minutes.

[2] = Equilibrium solubility of crystalline solid forms in simulated fluids (SGF, FaSSIF, FedSSIF); settings: for solubility thermodynamic at 24 h: thermodynamic from solid, room temperature
Experimental: The purpose of this assay is to measure the solubility of certain solid forms of the present invention in comparison to 6,6-dimethyl-2-{2-[(1-methyl-1H-pyrazol-5-yl)amino]pyrimidin-4-yl}-5-[2-(morpholin-4-yl)ethyl]-5,6-dihydro-4H-thieno[2,3-c]pyrrol-4-one (free base). pKa Determination is performed using a UV-metric method. The sample is titrated in a fast-UV triple titration between pH 2-12 at a concentration of 31-19 μM under aqueous condition. Subsequently, the sample is titrated in three UV-metric titrations from pH 1.5-10 at a concentration of 30-27 μM with no precipitation and the observed pKa averages are reported.
To determine the solubility of the three different crystal forms, a single aliquot of the test media (2 mL, see table 4) is added to an accurately weighed sample. Samples are mixed at room temperature for a period of 24 hours. If a solution is observed, more crystalline material is added and the suspension is slurried for at least 2 hours, after which, an aliquot is withdrawn, filtered through a 0.45 μm PTFE filter and characterized by HPLC using the following HPLC conditions: Column Waters)(Bridge Phenyl, 4.6×100 mm, 3.5 μm, mobile phase A is 0.% NH4OH in water, mobile phase B is MeOH, diluent is 75% ACN and 25% water, gradient is 50% A at time 0, 25% A at time 10-13 minutes, and 50% A at time 13.1 to 18 minutes with a flow rate of 0.9 mL/minute, a column temperature of 35° C., UV at 225 nM, an injection volume of 5 and autosampler at ambient temperature. The remaining solids are air dried prior to analysis by XRPD. One replicate from each sample has triplicate HPLC analysis. pH Measurement of the solution is performed using calibrated scientific pH equipment. […] The equilibrium solubility in simulated intestinal fluids of the free base (assumed crystalline) compared to the crystalline methanesulfonic acid dihydrate salt (Example 2) and 4-methylbenzenesulfonic acid salt (Example 3), (assumed crystalline) are shown in Table 4.

[3] = Compaction properties / tabletability (Instron compaction, tensile strength); settings: for Tensile: 300 mg compact
Experimental: The purpose of this study is to determine the compaction properties of certain solid forms of the present invention. The experimental compaction testing is evaluated on Instron Universal Testing System equipped with a 50 kN load cell using Natoli 10 mm flat round punches and die for material compression. The profiles are generated at 5, 10, and 15 kN with a target tablet weight of 300 mg for each compact. The three compacts are made at each pressure set point while the Instron is traveling at 50 mm/minute. The compacts final weight is measured on a balance. The tablet's diameter and thickness is measured using Mitutoyo Thickness Gauge and hardness testing is completed on a Vankel Hardness tester using axially breakage.

[4] = Accelerated open-dish physical stability of prototype tablet (XRPD, HPLC)
Experimental: (§1) The purpose of this study is to evaluate the properties of certain solid forms of the present invention with respect to the suitability for manufacturing high drug load tablets. The API flowability is measured using a United States Pharmacopeia method for bulk/tapped density and a powder rheometer. The formula contains ˜64.6 wt % Example 2, 26.4 wt % microcrystalline cellulose (diluent/binder), 5 wt % croscarmellose sodium (disintegrant), 2 wt % sodium stearyl fumarate (lubricant), and 2 wt % silicone dioxide (glidant). The components are combined and tumble blended in a single step at a 40 g scale. The resulting blend is then tested using the same bulk/tapped density and powder rheometry tests. The blend is compressed on a single-station, instrumented tablet press. The accelerated studies are comprised of prototype tablets of methanesulfonic acid dihydrate (Example 2) at a 50% free base equivalence drug load. The tablets are prepared and stored in open-dish containers to evaluate stability. Samples are stored at 40° C./11% RH, 40° C./75% RH, 50° C./22% RH, and 50° C./50% RH. At designated time points the samples are characterized by XRPD for physical form and by HPLC using the following conditions: Column Zorbax Bonus-RP, 3.5-micron, 4.6×75 mm, mobile phase A is 0.1% TFA in water, mobile phase B is 0.1% TFA in ACN, gradient is 95% A at time 0 to 23% A at 9.5 minutes-12.1 minutes, 5% A at time 13-16 minutes, and 95% A at time 16.1 to 20 minutes with a flow rate of 1.5 mL/minute, a column temperature of 30° C., UV at 227 nM, an injection volume of 5 and autosampler at ambient temperature. The drug product formulation stress study under accelerated open dish conditions for methanesulfonic acid dihydrate (Example 2) is depicted in Table 5.

[5] = Formulation assessment: API powder flowability, compressibility, sticking; settings: compared to the free base
Experimental: as §1

SMILES	Hygroscopicity, weight increase ([1]; 20% RH)	Hygroscopicity, weight increase ([1]; 60% RH)	pH of the solution in solubility test ([2]; FaSSIF)	pH of the solution in solubility test ([2]; FedSSIF)	pH of the solution in solubility test ([2]; SGF)	solubility thermodynamic at 24 h ([2]; fessif, FedSSIF)	solubility thermodynamic at 24 h ([2]; simulated gastric fluid, SGF)	solubility thermodynamic at 24 h ([2]; FaSSIF)	Tensile ([3]; Pressure 64 MPa)	Tensile ([3]; Pressure 127 MPa)	Tensile ([3]; Pressure 191 MPa)	also measured
CS(=O)(=O)O.Cn1nccc1Nc1nccc(-c2cc3c(s2)C(C)(C)N(CCN2CCOCC2)C3=O)n1 [Example 2, 6,6-Dimethyl-2-{2-[(1-methyl-1H-pyrazol-5-yl)amino]pyrimidin-4-yl}-5-[2-(morpholin-4-yl)ethyl]-5,6-dihydro-4H-thieno[2,3-c]pyrrol-4-one; methanesulfonic acid dihydrate]			5.33	5.09	2.62	> 20300 µg/mL	> 9700 µg/mL	> 19000 µg/mL	1.2034 MPa	2.1532 MPa	2.4082 MPa	physical stability with respect to solution mediated form conversion ([2]; FaSSIF and FedSSIF): physically stable; solubility compared to the free base ([2]; FaSSIF and FedSSIF): higher solubility; hygroscopicity profile for drug product manufacturing processes [1]: preferred hygroscopicity profiles; Hygroscopicity, weight increase ([1]; 90% RH, dihydrate): <0.1 wt % increase; compaction properties compared with excipients ([3]; versus mannitol SD200 and Lactose Anhydrous): in range with excipients; Physical stability in prototype tablet ([4]; 40° C./11% RH, 7 days): Stable; Physical stability in prototype tablet ([4]; 40° C./11% RH, 14 days): Stable; Physical stability in prototype tablet ([4]; 40° C./75% RH, 7 days): Stable; Physical stability in prototype tablet ([4]; 40° C./75% RH, 14 days): Stable; Physical stability in prototype tablet ([4]; 40° C./75% RH, 30 days): Stable; Physical stability in prototype tablet ([4]; 50° C./22% RH, 7 days): Stable; Physical stability in prototype tablet ([4]; 50° C./22% RH, 14 days): Stable; Physical stability in prototype tablet ([4]; 50° C./22% RH, 30 days): Stable; Physical stability in prototype tablet ([4]; 50° C./50% RH, 7 days): Stable; Physical stability in prototype tablet ([4]; 50° C./50% RH, 14 days): Stable; Physical stability in prototype tablet ([4]; 50° C./50% RH, 30 days): Stable; compressibility [5]: improved; powder flowability [5]: improved; sticking to tableting tools [5]: reduced sticking
Cc1ccc(S(=O)(=O)O)cc1.Cn1nccc1Nc1nccc(-c2cc3c(s2)C(C)(C)N(CCN2CCOCC2)C3=O)n1 [Example 3, 6,6-Dimethyl-2-{2-[(1-methyl-1H-pyrazol-5-yl)amino]pyrimidin-4-yl}-5-[2-(morpholin-4-yl)ethyl]-5,6-dihydro-4H-thieno[2,3-c]pyrrol-4-one; 4-methylbenzenesulfonic acid]	<0.1 wt %	~0.2 wt %	5.44	5.04	2.46	13500 µg/mL	7080 µg/mL	12200 µg/mL				solubility compared to the free base ([2]; FaSSIF and FedSSIF): higher solubility; hygroscopicity profile for drug product manufacturing processes [1]: preferred hygroscopicity profiles; Hygroscopicity, weight increase ([1]; 90% RH): ~0.5 wt. % increase wt %
Cl.Cn1nccc1Nc1nccc(-c2cc3c(s2)C(C)(C)N(CCN2CCOCC2)C3=O)n1 [Example 4, 6,6-Dimethyl-2-{2-[(1-methyl-1H-pyrazol-5-yl)amino]pyrimidin-4-yl}-5-[2-(morpholin-4-yl)ethyl]-5,6-dihydro-4H-thieno[2,3-c]pyrrol-4-one; hydrochloride, reference compound]	~0.4 wt. % wt %	~6 wt %										
OC[C@@H](O)[C@@H](O)[C@H](O)[C@H](O)CO [Mannitol SD200]									0.4873 MPa	1.1966 MPa	2.1411 MPa	

Now from value to molecule, other results behind:

Hygroscopicity, weight increase ([1]; 20% RH)	Hygroscopicity, weight increase ([1]; 60% RH)	pH of the solution in solubility test ([2]; FaSSIF)	pH of the solution in solubility test ([2]; FedSSIF)	pH of the solution in solubility test ([2]; SGF)	solubility thermodynamic at 24 h ([2]; fessif, FedSSIF)	solubility thermodynamic at 24 h ([2]; simulated gastric fluid, SGF)	solubility thermodynamic at 24 h ([2]; FaSSIF)	Tensile ([3]; Pressure 64 MPa)	Tensile ([3]; Pressure 127 MPa)	Tensile ([3]; Pressure 191 MPa)	SMILES	also measured
<0.1 wt %	<0.1 wt %										CS(=O)(=O)O.Cn1nccc1Nc1nccc(-c2cc3c(s2)C(C)(C)N(CCN2CCOCC2)C3=O)n1 [Example 1, 6,6-Dimethyl-2-{2-[(1-methyl-1H-pyrazol-5-yl)amino]pyrimidin-4-yl}-5-[2-(morpholin-4-yl)ethyl]-5,6-dihydro-4H-thieno[2,3-c]pyrrol-4-one; methanesulfonic acid]	Hygroscopicity, weight increase ([1]; 90% RH): ~4 wt %
		6.70	5.36	5.05	5650 µg/mL (≈ 12.5 mM)	3700 µg/mL (≈ 8.16 mM)	130 µg/mL (≈ 0.287 mM)	0.5415 MPa	1.0491 MPa	1.6394 MPa	Cn1nccc1Nc1nccc(-c2cc3c(s2)C(C)(C)N(CCN2CCOCC2)C3=O)n1 [Free base, 6,6-Dimethyl-2-{2-[(1-methyl-1H-pyrazol-5-yl)amino]pyrimidin-4-yl}-5-[2-(morpholin-4-yl)ethyl]-5,6-dihydro-4H-thieno[2,3-c]pyrrol-4-one, reference compound]	
								0.9687 MPa		3.1671 MPa	OC[C@H]1O[C@@H](O[C@H]2[C@H](O)[C@@H](O)C(O)O[C@@H]2CO)[C@H](O)[C@@H](O)[C@H]1O (some centres unmarked) [Lactose Anhydrous]	Tensile ([3]; Pressure 128 MPa): 1.9119 MPa
